Drawing on patent publication US7943628B2, “Pyrimidine derivatives” (Pfizer Limited, priority 2005, dated 2011), this text covers Ki for 42 compounds.

Where a name gives a salt, the structure may show the parent alone.

The target of this assay is T1, histamine H4 receptor (Homo sapiens, UniProt Q9H3N8).
T1 construct: expressed in transfected cells; host or cells: CHO cells
T1 sequence (Q9H3N8 whole entry): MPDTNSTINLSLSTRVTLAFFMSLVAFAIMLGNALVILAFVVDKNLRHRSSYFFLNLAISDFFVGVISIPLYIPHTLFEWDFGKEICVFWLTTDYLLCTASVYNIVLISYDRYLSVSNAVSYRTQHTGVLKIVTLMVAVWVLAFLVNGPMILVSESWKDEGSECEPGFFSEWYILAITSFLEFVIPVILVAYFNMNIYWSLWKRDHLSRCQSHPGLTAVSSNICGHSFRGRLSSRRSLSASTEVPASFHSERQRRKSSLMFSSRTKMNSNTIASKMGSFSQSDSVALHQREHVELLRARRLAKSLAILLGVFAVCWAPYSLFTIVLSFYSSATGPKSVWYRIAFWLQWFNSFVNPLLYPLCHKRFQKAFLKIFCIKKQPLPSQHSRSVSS
Kind of assay: H4 binding, method 1 ([3H]-histamine filtration binding on CHO cell membranes). The following applies: H4 binding, method 1; Ki calculated from IC50 (Cheng-Prussoff). The method, then:
Cell pellets from CHO cells expressing the histamine H4 receptor were homogenised in ice-cold 50 mM Tris-HCl/0.5 mM CaCl2 buffer containing a protease inhibitor cocktail (Roche®, United Kingdom) using a ground glass homogeniser. Homogenates were centrifuged at 48000 g for 30 min at 4° C. The membrane pellet was resuspended in fresh buffer and the centrifugation step was repeated as described above. The membrane pellet was resuspended in 50 mM Tris-HCl in the same volume as the original cell pellet. Aliquots of membrane preparations were stored at −80° C. and were used for [^3H]-Histamine binding experiments.
Cell membranes (20-35 μg/well) were incubated for 90 minutes shaking at room temperature with 3 nM [2,5-^3H]Histamine dihydrochloride (30-60 Ci/mmol) in 50 mM Tris-HCl (pH 7.4), with or without competing H4 ligands. The reaction was terminated by rapid filtration through 0.5% polyethylenimine-soaked Unifilter GF/B plates (Packard) followed by three washes with 1 ml ice-cold 50 mM Tris-HCl. Filters were dried for 45 min at 45° C. and bound radiolabel was determined using scintillation counting techniques. Non-specific binding was defined with 10 μM JNJ7777120.
As usually defined, the Ki is the equilibrium dissociation constant of an inhibitor or competing ligand from its target. For the compound `CC[C@@H](C)Nc1cc(N2CC[C@@H](NC)C2)ncn1` [Example 146, 6-[(3R)-3-(Methylamino)pyrrolidin-1-yl]-N-[(1R)-1-methylpropyl]pyrimidin-4-amine], the Ki was 13.7 nM.
Next, `CCCCNc1cc(N2CC[C@@H](NC)C2)ncn1` [Example 147, N-Butyl-6-[(3R)-3-(methylamino)pyrrolidin-1-yl]pyrimidin-4-amine]: 17.3 nM.
In the case of `CN[C@@H]1CCN(c2cc(NC(C)(C)C)nc(N)n2)C1` [Example 148, N^4-(tert-Butyl)-6-[(3R)-3-(methylamino)pyrrolidin-1-yl]pyrimidine-2,4-diamine], the Ki was 4.89 nM.
Regarding `CN[C@@H]1CCN(c2cc(NC3(C)CC3)nc(N)n2)C1` [Example 149, 6-[(3R)-3-(Methylamino)pyrrolidin-1-yl]-N^4-(1-methylcyclopropyl)pyrimidine-2,4-diamine], the Ki is 5.2 nM.
The same measure for `CC[C@H](C)Nc1cc(N2CC[C@@H](NC)C2)nc(N)n1` [Example 151, 6-[(3R)-3-(Methylamino)pyrrolidin-1-yl]-N^4-[(1S)-1-methylpropyl]pyrimidine-2,4-diamine]: 12.4 nM; for `CC[C@@H](C)Nc1cc(N2CC[C@@H](NC)C2)nc(N)n1` [Example 152, 6-[(3R)-3-(Methylamino)pyrrolidin-1-yl]-N^4-[(1R)-1-methylpropyl]pyrimidine-2,4-diamine]: 16.9 nM; for `CCC(C)Nc1cc(N2CC(NC)C2)ncn1` (stereo not drawn) [Example 153, N-(sec-Butyl)-6-[3-(methylamino)azetidin-1-yl]pyrimidin-4-amine]: 11.5 nM.
Next, `Nc1nc(NCC2CC2)cc(N2CCNCC2)n1` [Example 154, N^4-(Cyclopropylmethyl)-6-piperazin-1-ylpyrimidine-2,4-diamine]: 1.71 nM; `CN[C@@H]1CCN(c2cc(NCc3ccc(F)cc3)nc(N)n2)C1` [Example 155, N^4-(4-Fluorobenzyl)-6-[(3R)-3-(methylamino)pyrrolidin-1-yl]pyrimidine-2,4-diamine]: 1.78 nM; `CC(C)(C)CNc1cc(N2CCNCC2)nc(N)n1` [Example 156, N^4-(2,2-Dimethylpropyl)-6-piperazin-1-ylpyrimidine-2,4-diamine]: 2.44 nM.
The same measure for `CNC1CN(c2cc(NCc3ccc(F)cc3F)nc(N)n2)C1` [Example 157, N^4-(2,4-Difluorobenzyl)-6-[3-(methylamino)azetidin-1-yl]pyrimidine-2,4-diamine]: 2.49 nM.
With `CCCC(C)Nc1cc(N2CC(NC)C2)nc(N)n1` (stereo not drawn) [Example 158, 6-[3-(Methylamino)azetidin-1-yl]-N^4-(1-methylbutyl)pyrimidine-2,4-diamine], the Ki is 2.59 nM.
Next, `CNC1CN(c2cc(NCC(C)(C)C)nc(N)n2)C1` [Example 159, N^4-(2,2-Dimethylpropyl)-6-[3-(methylamino)azetidin-1-yl]pyrimidine-2,4-diamine hydrochloride]: 2.62 nM.
Next, `CNC1CN(c2cc(N[C@H](C)C(C)C)nc(N)n2)C1` [Example 160, N^4-[(1R)-1,2-Dimethylpropyl]-6-[3-(methylamino)azetidin-1-yl]pyrimidine-2,4-diamine]: 2.65 nM; `CC[C@H](C)Nc1cc(N2CC(NC)C2)nc(N)n1` [Example 161, 6-[3-(Methylamino)azetidin-1-yl]-N^4-[(1S)-1-methylpropyl]pyrimidine-2,4-diamine]: 2.75 nM; `CCCNc1cc(N2CCNCC2)nc(N)n1` [Example 163, 6-Piperazin-1-yl-N^4-propylpyrimidine-2,4-diamine]: 3.78 nM.
The same measure for `CCNc1cc(N2CC(NC)C2)nc(N)n1` [Example 164, N^4-Ethyl-6-[3-(methylamino)azetidin-1-yl]pyrimidine-2,4-diamine]: 3.82 nM.
Turning to `Nc1nc(NCC2CC2)cc(N2C[C@H]3CCCN[C@H]3C2)n1` [Example 165, N^4-(Cyclopropylmethyl)-6-[(4aR,7aR)-octahydro-6H-pyrrolo[3,4-b]pyridin-6-yl]pyrimidine-2,4-diamine], the Ki is 3.83 nM.
Next, `CC(C)(C)CNc1cc(N2C[C@@H]3CCCN[C@@H]3C2)nc(N)n1` [Example 166, N^4-(2,2-Dimethylpropyl)-6-[(4aS,7aS)-octahydro-6H-pyrrolo[3,4-b]pyridin-6-yl]pyrimidine-2,4-diamine]: 3.99 nM.
For `CN[C@@H]1CCN(c2cc(NCC3CC3)nc(N)n2)C1` [Example 167, N^4-(Cyclopropylmethyl)-6-[(3R)-3-(methylamino)pyrrolidin-1-yl]pyrimidine-2,4-diamine], the Ki was 6.3 nM.
Next, `CNC1CN(c2cc(NC(C)(C)C)nc(N)n2)C1` [Example 168, N^4-(tert-Butyl)-6-[3-(methylamino)azetidin-1-yl]pyrimidine-2,4-diamine]: 6.5 nM; `CC(C)Nc1cc(N2C[C@@H]3CCCN[C@@H]3C2)nc(N)n1` [Example 169, N^4-Isopropyl-6-[(4aS,7aS)-octahydro-6H-pyrrolo[3,4-b]pyridin-6-yl]pyrimidine-2,4-diamine]: 6.77 nM.
The same measure for `CCNc1cc(N2CC(N)C2)nc(N)n1` [Example 170, 6-(3-Aminoazetidin-1-yl)-N^4-ethylpyrimidine-2,4-diamine]: 8.55 nM; for `Nc1nc(NCC2CC2)cc(N2CC(N)C2)n1` [Example 171, 6-(3-Aminoazetidin-1-yl)-N^4-(cyclopropylmethyl)pyrimidine-2,4-diamine]: 9.21 nM.
In the case of `Nc1nc(NC2CC2)cc(N2CCC3NCCC3C2)n1` (stereo not drawn) [Example 172, N^4-Cycopropyl-6-[(3aR*,7aS*)-octahydro-5H-pyrrolo[3,2-c]pyridin-5-yl]pyrimidine-2,4-diamine], the Ki was 9.3 nM.
Next, `CNC1CN(c2cc(N3CCC(C)CC3)nc(N)n2)C1` [Example 173, 4-[3-(Methylamino)azetidin-1-yl]-6-(4-methylpiperidin-1-yl)pyrimidin-2-amine]: 10.1 nM; `CN[C@@H]1CCN(c2cc(NCC3CCCC3)nc(N)n2)C1` [Example 174, N^4-(Cyclopentylmethyl)-6-[(3R)-3-(methylamino)pyrrolidin-1-yl]pyrimidine-2,4-diamine]: 10.6 nM; `CCNc1cc(N2CCCNCC2)nc(N)n1` [Example 175, 6-(1,4-Diazepan-1-yl)-N^4-ethylpyrimidine-2,4-diamine]: 12.3 nM.
The same measure for `CN(C)CCNc1cc(NCC2CC2)nc(N)n1` [Example 176, N^4-(Cyclopropylmethyl)-N6-[2-(dimethylamino)ethyl]pyrimidine-2,4,6-triamine]: 15.1 nM; for `CN[C@H]1CCN(c2cc(NCC(C)(C)C)nc(N)n2)C1` [Example 177, N^4-(2,2-Dimethylpropyl)-6-[(3S)-3-(methylamino)pyrrolidin-1-yl]pyrimidine-2,4-diamine]: 16 nM.
Next, `Nc1nc(NC2CCC2)cc(N2C[C@@H]3CCCN[C@@H]3C2)n1` [Example 178, N^4-Cyclobutyl-6-[(4aS,7aS)-octahydro-6H-pyrrolo[3,4-b]pyridin-6-yl]pyrimidine-2,4-diamine]: 16.1 nM.
With `CNC1CN(c2cc(NC3CCC3)ncn2)C1` [Example 179, N-Cyclobutyl-6-[3-(methylamino)azetidin-1-yl]pyrimidin-4-amine], the Ki was 16.5 nM.
In the case of `CCCNc1cc(N2CC[C@@H](NC)C2)nc(N)n1` [Example 180, 6-[(3R)-3-(Methylamino)pyrrolidin-1-yl]-N^4-propylpyrimidine-2,4-diamine], the Ki is 17.4 nM.
Next, `CN[C@@H]1CCN(c2cc(NC3CCC3)ncn2)C1` [Example 181, N-Cyclobutyl-6-[(3R)-3-(methylamino)pyrrolidin-1-yl]pyrimidin-4-amine]: 17.6 nM; `CNC1CN(c2cc(NCCOC)nc(N)n2)C1` [Example 182, N^4-(2-Methoxyethyl)-6-[3-(methylamino)azetidin-1-yl]pyrimidine-2,4-diamine]: 19.8 nM.
The same measure for `CN[C@@H]1CCN(c2cc(NCC(C)(C)C)ncn2)C1` [Example 183, N-(2,2-Dimethylpropyl)-6-[(3R)-3-(methylamino)pyrrolidin-1-yl]pyrimidin-4-amine]: 20 nM.
The same measure for `C[C@H]1CN(c2cc(NCC3CC3)nc(N)n2)CCN1` [Example 184, N^4-(Cyclopropylmethyl)-6-[(3S)-3-methylpiperazin-1-yl]pyrimidine-2,4-diamine]: 20.4 nM; for `CCNc1cc(N2CCCN(C)CC2)nc(N)n1` [Example 185, N^4-Ethyl-6-(4-methyl-1,4-diazepan-1-yl)pyrimidine-2,4-diamine]: 20.5 nM; for `CNC1(C)CN(c2cc(NCC(C)(C)C)nc(N)n2)C1` [Example 186, N^4-(2,2-Dimethylpropyl)-6-[3-methyl-3-(methylamino)azetidin-1-yl]pyrimidine-2,4-diamine]: 22.2 nM.
In the case of `CC(C)Nc1cc(N2CCNCC2)nc(N)n1` [Example 187, N^4-Isopropyl-6-piperazin-1-ylpyrimidine-2,4-diamine], the Ki was 22.4 nM.
`CNC1CN(c2cc(NC3CC3)ncn2)C1` [Example 189, N-Cyclopropyl-6-[3-(methylamino)azetidin-1-yl]pyrimidin-4-amine]: the Ki was 25.8 nM.
Next, `CC(C)(C)CNc1cc(N2CC(N)C2)nc(N)n1` [Example 190, 6-(3-Aminoazetidin-1-yl)-N^4-(2,2-dimethylpropyl)pyrimidine-2,4-diamine]: 27.7 nM.
